Experimental data from patent publication US11912686B2 (Gilead Sciences, Inc., priority 2020, dated 2024).

Target: human LPAR1 (Homo sapiens (Human), UniProt Q92633)
Experiment: LPAR1 intracellular calcium mobilization assay (antagonist mode, FLIPR)
Format: cell-based
Conditions: CHO-K1 EDG2 cells expressing human LPAR1, LPA 18:2 at EC80 (100 nM), test compound 0.5 nM to 10 μM

Chain of human LPAR1 (Q92633 whole entry): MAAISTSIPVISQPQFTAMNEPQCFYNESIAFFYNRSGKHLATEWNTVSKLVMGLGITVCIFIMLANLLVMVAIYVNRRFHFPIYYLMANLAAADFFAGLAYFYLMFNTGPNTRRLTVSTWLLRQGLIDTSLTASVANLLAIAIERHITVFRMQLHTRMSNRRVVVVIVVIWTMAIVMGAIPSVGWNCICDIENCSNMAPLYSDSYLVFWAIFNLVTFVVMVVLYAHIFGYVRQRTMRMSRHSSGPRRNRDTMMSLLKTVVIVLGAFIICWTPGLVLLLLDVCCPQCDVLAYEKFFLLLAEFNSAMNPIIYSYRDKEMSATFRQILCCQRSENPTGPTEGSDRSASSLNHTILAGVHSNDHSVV

Row | SMILES | EC50 [nM]
1 | C[C@@H](OC(=O)Nc1c(-c2ccc(NC(=O)N3CCC3)cn2)nnn1C)c1cccnc1Cl [Compound 188, (R)-1-(2-chloropyridin-3-yl)ethyl (4-(5-(azetidine-1-carboxamido)pyridin-2-yl)-1-methyl-1H-1,2,3-triazol-5-yl)carbamate] | 452
2 | C[C@@H]1CCN(C(=O)Nc2ccc(-c3nnn(C)c3NC(=O)O[C@H](C)c3cccnc3Cl)nc2)C1 [Compound 190, (R)-1-(2-chloropyridin-3-yl)ethyl (1-methyl-4-(5-((R)-3-methylpyrrolidine-1-carboxamido)pyridin-2-yl)-1H-1,2,3-triazol-5-yl)carbamate] | 359
3 | C[C@@H](OC(=O)Nc1c(-c2ccc(NC(=O)N3CC(C#N)C3)cn2)nnn1C)c1cccnc1Cl [Compound 191, (R)-1-(2-chloropyridin-3-yl)ethyl (4-(5-(3-cyanoazetidine-1-carboxamido)pyridin-2-yl)-1-methyl-1H-1,2,3-triazol-5-yl)carbamate] | 620
4 | C[C@@H]1CCCN1C(=O)Nc1ccc(-c2nnn(C)c2NC(=O)O[C@H](C)c2cccnc2Cl)nc1 [Compound 192, (R)-1-(2-chloropyridin-3-yl)ethyl (1-methyl-4-(5-((R)-2-methylpyrrolidine-1-carboxamido)pyridin-2-yl)-1H-1,2,3-triazol-5-yl)carbamate] | 10000
5 | C[C@@H](OC(=O)Nc1c(-c2ccc(NC(=O)N3CCC(F)(F)C3)cn2)nnn1C)c1cccnc1Cl [Compound 193, (R)-1-(2-chloropyridin-3-yl)ethyl (4-(5-(3,3-difluoropyrrolidine-1-carboxamido)pyridin-2-yl)-1-methyl-1H-1,2,3-triazol-5-yl)carbamate] | 287
6 | C[C@@H](OC(=O)Nc1c(-c2ccc(NC(=O)N3CCCC3)cn2)nnn1C)c1cccnc1Cl [Compound 194, (R)-1-(2-chloropyridin-3-yl)ethyl (1-methyl-4-(5-(pyrrolidine-1-carboxamido)pyridin-2-yl)-1H-1,2,3-triazol-5-yl)carbamate] | 832
7 | C[C@@H](OC(=O)Nc1c(-c2ccc(NC(=O)[C@H]3CNC(=O)C3)cn2)nnn1C)c1cccnc1Cl [Compound 195, (R)-1-(2-chloropyridin-3-yl)ethyl (1-methyl-4-(5-((R)-5-oxopyrrolidine-3-carboxamido)pyridin-2-yl)-1H-1,2,3-triazol-5-yl)carbamate] | 1540
8 | C[C@@H](OC(=O)Nc1c(-c2ccc(NC(=O)CC3OCCO3)cn2)nnn1C)c1cccnc1Cl [Compound 196, (R)-1-(2-chloropyridin-3-yl)ethyl (4-(5 (2-(1,3-dioxolan-2-yl)acetamido)pyridin-2-yl)-1-methyl-1H-1,2,3-triazol-5-yl)carbamate] | 1030
9 | C[C@@H](OC(=O)Nc1c(-c2ccc(NC(=O)[C@@H]3C[C@H]3c3ccccc3)cn2)nnn1C)c1cccnc1Cl [Compound 197, (R)-1-(2-chloropyridin-3-yl)ethyl (1-methyl-4-(5-((1R,2R)-2-phenylcyclopropane-1-carboxamido)pyridin-2-yl)-1H-1,2,3-triazol-5-yl)carbamate] | 5.2
10 | C[C@@H](OC(=O)Nc1c(-c2ccc(NC(=O)C3(c4cccnc4)CC(F)(F)C3)cn2)nnn1C)c1cccnc1Cl [Compound 198, (R)-1-(2-chloropyridin-3-yl)ethyl (4-(5-(3,3-difluoro-1-(pyridin-3-yl)cyclobutane-1-carboxamido)pyridin-2-yl)-1-methyl-1H-1,2,3-triazol-5-yl)carbamate] | 613
11 | C[C@@H](OC(=O)Nc1c(-c2ccc(NC(=O)C3C(F)(F)C34CC4)cn2)nnn1C)c1cccnc1Cl (stereo partly drawn) [Compound 199, (R)-1-(2-chloropyridin-3-yl)ethyl (4-(5-(2,2-difluorospiro[2.2]pentane-1-carboxamido)pyridin-2-yl)-1-methyl-1H-1,2,3-triazol-5-yl)carbamate] | 65.7
12 | C[C@@H](OC(=O)Nc1c(-c2ccc(NC(=O)C3(CO)CC(F)(F)C3)cn2)nnn1C)c1cccnc1Cl [Compound 200, (R)-1-(2-chloropyridin-3-yl)ethyl (4-(5-(3,3-difluoro-1-(hydroxymethyl)cyclobutane-1-carboxamido)pyridin-2-yl)-1-methyl-1H-1,2,3-triazol-5-yl)carbamate] | 94
13 | C[C@@H](OC(=O)Nc1c(-c2ccc(NC(=O)[C@]3(C#N)C[C@H]3C(F)(F)F)cn2)nnn1C)c1cccnc1Cl [Compound 201, (R)-1-(2-chloropyridin-3-yl)ethyl (4-(5-((1R,2R)-1-cyano-2-(trifluoromethyl)cyclopropane-1-carboxamido)pyridin-2-yl)-1-methyl-1H-1,2,3-triazol-5-yl)carbamate] | 146
14 | C[C@@H](OC(=O)Nc1c(-c2ccc(NC(=O)[C@@]3(C#N)C[C@@H]3C(F)(F)F)cn2)nnn1C)c1cccnc1Cl [Compound 202, (R)-1-(2-chloropyridin-3-yl)ethyl (4-(5-((1S,2S)-1-cyano-2-(trifluoromethyl)cyclopropane-1-carboxamido)pyridin-2-yl)-1-methyl-1H-1,2,3-triazol-5-yl)carbamate] | 5
15 | C[C@H](C#N)C(=O)Nc1ccc(-c2nnn(C)c2NC(=O)O[C@H](C)c2cccnc2Cl)nc1 [Compound 203, (R)-1-(2-chloropyridin-3-yl)ethyl (4-(5-((R)-2-cyanopropanamido)pyridin-2-yl)-1-methyl-1H-1,2,3-triazol-5-yl)carbamate] | 94.8
16 | C[C@@H](C#N)C(=O)Nc1ccc(-c2nnn(C)c2NC(=O)O[C@H](C)c2cccnc2Cl)nc1 [Compound 204, (R)-1-(2-chloropyridin-3-yl)ethyl (4-(5-((S)-2-cyanopropanamido)pyridin-2-yl)-1-methyl-1H-1,2,3-triazol-5-yl)carbamate] | 132
17 | C[C@@H](OC(=O)Nc1c(-c2ccc(NC(=O)c3cnc(C(F)(F)F)nc3)cn2)nnn1C)c1cccnc1Cl [Compound 205, (R)-1-(2-chloropyridin-3-yl)ethyl (1-methyl-4-(5-(2-(trifluoromethyl)pyrimidine-5-carboxamido)pyridin-2-yl)-1H-1,2,3-triazol-5-yl)carbamate] | 8.3
18 | C[C@@H](OC(=O)Nc1c(-c2ccc(NC(=O)c3cnc(C(F)F)nc3)cn2)nnn1C)c1cccnc1Cl [Compound 206, (R)-1-(2-chloropyridin-3-yl)ethyl (4-(5-(2-(difluoromethyl)pyrimidine-5-carboxamido)pyridin-2-yl)-1-methyl-1H-1,2,3-triazol-5-yl)carbamate] | 71.8
19 | C[C@@H](OC(=O)Nc1c(-c2ccc(NC(=O)c3ccc(Cl)nc3)cn2)nnn1C)c1cc(F)cnc1F [Compound 212, (R)-1-(2,5-difluoropyridin-3-yl)ethyl (4-(5-(6-chloronicotinamido)pyridin-2-yl)-1-methyl-1H-1,2,3-triazol-5-yl)carbamate] | 56.4
20 | C[C@@H](OC(=O)Nc1c(-c2ccc(NC(=O)c3ccnc(F)c3)cn2)nnn1C)c1cc(F)cnc1F [Compound 213, (R)-1-(2,5-difluoropyridin-3-yl)ethyl (4-(5-(2-fluoroisonicotinamido)pyridin-2-yl)-1-methyl-1H-1,2,3-triazol-5-yl)carbamate] | 175
21 | C[C@@H](OC(=O)Nc1c(-c2ccc(NC(=O)C3(C(F)F)COC3)cn2)nnn1C)c1cc(F)cnc1F [Compound 214, (R)-1-(2,5-difluoropyridin-3-yl)ethyl (4-(5-(3-(difluoromethyl)oxetane-3-carboxamido)pyridin-2-yl)-1-methyl-1H-1,2,3-triazol-5-yl)carbamate] | 357
